Where two headings read alike, the source gives them in different places.
What was measured:
[1] = system: Glioblastoma cell line U87 cells; assay: MTT cell viability assay, glioblastoma cells; format: cell-based; settings: U87 glioblastoma cells, MTT after three days
Method: (§1) Different concentration of compounds were added to the cells. Three days later, a MTT assay (Sigma) was performed to monitor cell viability.
(§2) In this example, samples of glioblastoma cells (U87) and astrocyte cells (non-cancer control) were exposed various disclosed compounds to determine the effectiveness of the compounds for inhibiting cell growth.

[2] = system: Immortalized human astrocytes; assay: MTT cell viability assay, astrocytes (non-cancer control); format: cell-based; settings: immortalized human astrocytes, MTT after three days
Method: as §1, §2

| Compound | IC50 ([1]; Homo sapiens, U-87 MG, 72 h) | IC50 ([2]; Homo sapiens, Astrocyte, 72 h) | IC50 [1] | IC50 ([2]; read-out: IC50 (astrocyte)) |
| --- | --- | --- | --- | --- |
| Nc1nccc(N2CCCCC2)n1 [JDDUVA12, 4-(Piperidin-1-yl)pyrimidin-2-amine] | > 80 µM | > 80 µM |  |  |
| COC(=O)C1CCCN(c2ccnc(N)n2)C1 (stereo not drawn) [JDDUVA16] | > 80 µM |  |  |  |
| Nc1nccc(N2CCCC(CO)C2)n1 (stereo not drawn) [JDDUVA18, (1-(2-Aminopyrimidin-4-yl)piperidin-3-yl)methanol] | > 80 µM |  |  |  |
| COC(=O)C1(CCCc2ccccc2)CCCN(c2ccnc(N)n2)C1 (stereo not drawn) [JDDUVA20] | ~10.9 µM | 70 µM |  |  |
| Nc1nccc(N2CCCC(CO)(CCCc3ccccc3)C2)n1 (stereo not drawn) [JDDUVA28] |  |  | ~12.2 µM | > 80 µM |
| Nc1nccc(N2CCCC(CO)(CCCc3ccccc3)C2)n1 (stereo not drawn) [JDDUVA38] |  |  | ~11 µM | 56 µM |
| Cc1nc(N)nc(N2CCC(CO)(CCCc3ccccc3)CC2)c1C [JDDUVA43, (1-(2-Amino-5,6-dimethylpyrimidin-4-yl)-4-(3-phenylpropyl)piperidin-4-yl)methanol] |  | 47 µM |  | 60 µM |
| OCC1(CCCc2ccccc2)CCN(c2cc(C(F)(F)F)ncn2)CC1 [JDDUVA47, (4-(3-Phenylpropyl)-1-(6-(trifluoromethyl)pyrimidin-4-yl)piperidin-4-yl)methanol] | 13 µM | > 80 µM |  |  |
| Cc1c(O)ncnc1N1CCC(CO)(CCCc2ccccc2)CC1 [JDDUVA48, 6-(4-(Hydroxymethyl)-4-(3-phenylpropyl)piperidin-1-yl)-5-methylpyrimidin-4-ol] | 14.1 µM | 7.32 µM |  |  |
| Nc1nccc(N2CCC(CO)(CCCc3ccccc3)CC2)n1 [JDDUVA49, (1-(2-Aminopyrimidin-4-yl)-4-(3-phenylpropyl)piperidin-4-yl)methanol] | 3 µM | > 80 µM |  |  |
| Cc1c(Cl)ncnc1N1CCC(CO)(CCCc2ccccc2)CC1 [JDDUVA50, (1-(6-Chloro-5-methylpyrimidin-4-yl)-4-(3-phenylpropyl)piperidin-4-yl)methanol] | 21 µM | > 80 µM |  |  |
| Nc1ncnc(N2CCC(CO)(CCCc3ccccc3)CC2)c1N [JDDUVA51, (1-(5,6-Diaminopyrimidin-4-yl)-4-(3-phenylpropyl)piperidin-4-yl)methanol] | 12 µM | > 80 µM |  |  |
| COc1nc(OC)nc(N2CCC(CO)(CCCc3ccccc3)CC2)n1 [JDDUVA52, (1-(4,6-Dimethoxy-1,3,5-triazin-2-yl)-4-(3-phenylpropyl)piperidin-4-yl)methanol] | 41 µM | > 80 µM |  |  |
| Cc1nccnc1N1CCC(CO)(CCCc2ccccc2)CC1 [JDDUVA53, (1-(3-Methylpyrazin-2-yl)-4-(3-phenylpropyl)piperidin-4-yl)methanol] | 30 µM | > 80 µM |  |  |
| Nc1cncc(N2CCC(CO)(CCCc3ccccc3)CC2)n1 [JDDUVA55] | 16 µM | > 80 µM |  |  |
| CC1CCN(c2ccnc(N)n2)CC1 [JDDUVA59, 4-(4-Methylpiperidin-1-yl)pyrimidin-2-amine] | 72 µM | > 80 µM |  |  |
| OCC1(CCCc2ccccc2)CCN(c2cc(Cl)ncn2)CC1 [JDDUVA60, (1-(6-Chloropyrimidin-4-yl)-4-(3-phenylpropyl)piperidin-4-yl)methanol] |  | > 80 µM |  |  |
| Nc1nccc(N2CCCCC2CO)n1 (stereo not drawn) [JDDUVA61, (1-(2-Aminopyrimidin-4-yl)piperidin-2-yl)methanol] | > 80 µM | > 80 µM |  |  |
| Nc1nccc(N2CCC(c3ccccc3)CC2)n1 [JDDUVA63, 4-(4-Phenylpiperidin-1-yl)pyrimidin-2-amine] | 16 µM | > 80 µM |  |  |
| COc1c(Cl)ncnc1N1CCC(CO)(CCCc2ccccc2)CC1 [JDDUVA67, (1-(6-Chloro-5-methoxypyrimidin-4-yl)-4-(3-phenylpropyl)piperidin-4-yl)methanol] | ~2.5 µM | ~6 µM |  |  |
| CCc1ncnc(N2CCC(CO)(CCCc3ccccc3)CC2)c1F [JDDUVA68, (1-(6-Ethyl-5-fluoropyrimidin-4-yl)-4-(3-phenylpropyl)piperidin-4-yl)methanol] | 3.6 µM | 12.5 µM |  |  |
| Nc1ccnc(N2CCC(CO)(CCCc3ccccc3)CC2)n1 [JDDUVA69, (1-(4-Aminopyrimidin-2-yl)-4-(3-phenylpropyl)piperidin-4-yl)methanol] | 13.6 µM | > 80 µM |  |  |
| Nc1nccc(N2CCc3ccccc3C2)n1 [JDDUVA71, 4-(3,4-Dihydroisoquinolin-2(1H)-yl)pyrimidin-2-amine] | > 80 µM | > 80 µM |  |  |
| CCOC(=O)C1(CCCc2ccccc2)CCN(C(=O)OC(C)(C)C)CC1 [JDDUVA76] | ~30 µM | ~60 µM |  |  |

| Compound | IC50 ([1]; Homo sapiens, U-87 MG, 72 h) | IC50 ([2]; Homo sapiens, Astrocyte, 72 h) | IC50 [1] | IC50 ([2]; read-out: IC50 (astrocyte)) |
| --- | --- | --- | --- | --- |
| Nc1nc(N)nc(N2CCC(CO)(CCCc3ccccc3)CC2)n1 [JDDUVA78, (1-(4,6-Diamino-1,3,5-triazin-2-yl)-4-(3-phenylpropyl)piperidin-4-yl)methanol] | 12 µM | ~40 µM |  |  |
| Clc1cc(N2CCc3ccccc3C2)ncn1 [JDDUVA81] | > 80 µM | > 80 µM |  |  |
| Cc1ncnc(N2CCC(CO)(CCCc3ccccc3)CC2)c1C [JDDUVA96, (1-(5,6-Dimethylpyrimidin-4-yl)-4-(3-phenylpropyl)piperidin-4-yl)methanol] | ~4 µM | ~8 µM |  |  |
| COC(=O)C1CCCNC1 (stereo not drawn) [PLH1155] | > 80 µM | > 80 µM |  |  |
| COC(=O)C1CCCN(C(=O)OC(C)(C)C)C1 (stereo not drawn) [PLH1190] | > 80 µM | > 80 µM |  |  |
| COC(=O)C1(CCCc2ccccc2)CCCN(C(=O)OC(C)(C)C)C1 (stereo not drawn) [PLH1195] | ~22.5 µM | 65 µM |  |  |
| CC(C)(C)OC(=O)N1CCCC(CO)(CCCc2ccccc2)C1 (stereo not drawn) [PLH1196] | ~30 µM | > 80 µM |  |  |
| O=C(O)C1(CCCc2ccccc2)CCCNC1 (stereo not drawn) [PLH1197] | ~80 µM | > 80 µM |  |  |
| COC(=O)C1(CCCc2ccccc2)CCCN(c2ccnc(N)n2)C1 (stereo not drawn) [PLH1209, Methyl 1-(2-aminopyrimidin-4-yl)-3-(3-phenylpropyl)piperidine-3-carboxylate] |  |  | 6 µM | 76 µM |
| OCC1(CCCc2ccccc2)CCCNC1 (stereo not drawn) [PLH1211] | > 80 µM | > 80 µM |  |  |
| Nc1nccc(N2CCCC(CO)(CCCc3ccccc3)C2)n1 (stereo not drawn) [PLH1215, (1-(2-Aminopyrimidin-4-yl)-3-(3-phenylpropyl)piperidin-3-yl)methanol] | ~11.7 µM | > 80 µM |  |  |
| CS(=O)(=O)OCC1(CCCc2ccccc2)CCCN(c2ccnc(N)n2)C1 (stereo not drawn) [PLH1224] | ~50 µM | > 80 µM |  |  |
| CCOC(=O)C1(CCCc2ccccc2)CCCN(C(=O)OC(C)(C)C)C1 (stereo not drawn) [PLH1225] | ~15 µM | > 80 µM |  |  |
| COc1nc(OC)nc(N2CCCC(CO)(CCCc3ccccc3)C2)n1 (stereo not drawn) [PLH1230, (1-(4,6-Dimethoxy-1,3,5-triazin-2-yl)-3-(3-phenylpropyl)piperidin-3-yl)methanol] | 63.6 µM | > 80 µM |  |  |
| Cc1nccnc1N1CCCC(CO)(CCCc2ccccc2)C1 (stereo not drawn) [PLH1234, (1-(3-Methylpyrazin-2-yl)-3-(3-phenylpropyl)piperidin-3-yl)methanol] | 20 µM | 51.8 µM |  |  |
| Nc1ncnc(N2CCCC(CO)(CCCc3ccccc3)C2)n1 (stereo not drawn) [PLH1239, (1-(4-Amino-1,3,5-triazin-2-yl)-3-(3-phenylpropyl)piperidin-3-yl)methanol] | > 80 µM |  |  |  |
| Nc1nccc(N2CCCC(CCCc3ccccc3)(COCc3ccccc3)C2)n1 (stereo not drawn) [PLH1253, 4-(3-((Benzyloxy)methyl)-3-(3-phenylpropyl)piperidin-1-yl)pyrimidin-2-amine] | ~1.7 µM |  | ~3.4 µM |  |
| O=C(c1sc2cc(F)ccc2c1Cl)N1CCCC(CO)(CCCc2ccccc2)C1 (stereo not drawn) [PLH1254] | 16 µM | 49 µM |  |  |
| Nc1nc(N)nc(N2CCCC(CO)(CCCc3ccccc3)C2)n1 (stereo not drawn) [PLH1258, (1-(4,6-Diamino-1,3,5-triazin-2-yl)-3-(3-phenylpropyl)piperidin-3-yl)methanol] | 3.6 µM | > 80 µM |  |  |
| CC(C)(C)OC(=O)N1CCCC(C(=O)NCc2ccccc2)C1 (stereo not drawn) [PLH1273] | > 80 µM | > 80 µM |  |  |
| Cc1nc(N(C)C)nc(N2CCCC(CO)(CCCc3ccccc3)C2)c1C (stereo not drawn) [PLH1276, (1-(2-(Dimethylamino)-5,6-dimethylpyrimidin-4-yl)-3-(3-phenylpropyl)piperidin-3-yl)methanol] | 19 µM | > 80 µM |  |  |
| Cc1c(Cl)ncnc1N1CCCC(CO)(CCCc2ccccc2)C1 (stereo not drawn) [PLH1279, (1-(6-Chloro-5-methylpyrimidin-4-yl)-3-(3-phenylpropyl)piperidin-3-yl)methanol] | 8 µM | > 80 µM |  |  |
| Nc1nccc(N2CCCC(C(=O)NCCc3ccccc3)C2)n1 (stereo not drawn) [PLH1285, 1-(2-Aminopyrimidin-4-yl)-N-phenethylpiperidine-3-carboxamide] | 17 µM | > 80 µM |  |  |

Source: patent publication US20220213055A1, “SUBSTITUTED (PIPERIDIN-1-YL)ARYL ANALOGUES FOR MODULATING AVIL ACTIVITY” (University of Virginia Patent Foundation, priority 2019, published 2022)
